Literature values, collected in patent US8742076B2, “Nemorubicin metabolite and analog reagents, antibody-drug conjugates and methods” (Genentech, Inc., priority 2008, dated 2014).

What was measured:
[1] = comparison with nemorubicin and doxorubicin
[2] = system: tumor models

In the case of `COc1cccc2c1C(=O)c1c(O)c3c(c(O)c1C2=O)C[C@@](O)(C(=O)CO)C[C@@H]3O[C@H]1C[C@H]2[C@H](O[C@@H]3[C@@H](OC)OCCN32)[C@H](C)O1` [PNU (159682), 3′-deamino-3″,4′-anhydro-[2″(S)-methoxy-3″(R)-oxy-4″-morpholinyl]doxorubicin], the “cytotoxicity in vitro compared with nemorubicin and doxorubicin” value [1] is listed as “remarkably more cytotoxic than nemorubicin and doxorubicin” and the “efficacy in in vivo tumor models” value [2] is listed as “effective”.
